The source of these data is PubChem BioAssay AID588609 (Sanford-Burnham Center for Chemical Genomics, 2011).

Activity calls are given as the source filed them.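 How the source made its calls: active means compounds whose averaged half-maximal activating concentration falls below 100 micromolar; inactive means the rest.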

The target of this test is intestinal alkaline phosphatase (Alpi), mouse. Briefly: activators of mouse IAP enzyme, SAR follow-up, biochemical, luminescence, set 2 (AID 588609). As to conditions: purified muIAP, CDP-Star luminescence, 30 min.
`CN(C)S(=O)(=O)c1cccc(NC(=S)NCCC(c2ccccc2)c2ccccc2)c1`: the EC50 is 7.44 µM. The result for `O=S(=O)(c1ccc(NC(=S)NCC(c2ccccc2)c2ccccc2)cc1)N1CCCC1` reads 9.09 µM; that for `O=S(=O)(c1ccc(NC(=S)NCCC(c2ccccc2)c2ccccc2)cc1)N1CCCC1`, 59.3 µM. Under `CN(C)S(=O)(=O)c1cccc(NC(=S)NCCN2CCCC2)c1` stands > 100 µM (inactive); under `CN(C)S(=O)(=O)c1cccc(NC(=S)NC(C)(C)CC(C)(C)C)c1`, 32.1 µM. The result for `CC(CNC(=S)Nc1cccc(S(=O)(=O)N(C)C)c1)N1CCN(c2ccccc2)CC1` (stereo not given) reads 87.5 µM; that for `O=c1c2ccccc2[nH]c(=S)n1-c1cccc(S(=O)(=O)N2CCCC2)c1`, > 100 µM (inactive); that for `CN(C)S(=O)(=O)c1cccc(NC(=S)NC(c2ccccc2)c2ccccc2)c1`, 26 µM.

Regarding `O=C(NC(=S)Nc1cc(S(=O)(=O)N2CCOCC2)ccc1N1CCOCC1)c1ccco1`, the EC50 is > 100 µM (inactive). The result for `CN(C)S(=O)(=O)c1cccc(NC(=S)NCCC(=O)N2CCCC2)c1` reads > 100 µM (inactive); that for `CN(C)S(=O)(=O)c1cccc(NC(=S)NCCCn2ccnc2)c1`, > 100 µM (inactive); that for `CN(C)S(=O)(=O)c1cccc(NC(=S)NCCc2cccc(O)c2)c1`, > 100 µM (inactive). Under `Cc1ccccc1CNC(=S)Nc1ccc(S(=O)(=O)N(C)C)cc1` stands 47.7 µM. As to `CCN(CC)CCCNC(=S)Nc1cccc(S(=O)(=O)N(C)C)c1`, the EC50 is > 100 µM (inactive). With `CN(C)S(=O)(=O)c1cccc(NC(=S)NCc2ccc(Cl)cc2)c1`, the EC50 is 12.2 µM. The result for `Cc1ccc(S(=O)(=O)N(C)C)cc1NC(=S)NC(C)CCC(C)C` (stereo not given) reads 42.7 µM. The result for `CCN(CC)c1ccc(C(=O)NC(=S)Nc2cc(S(=O)(=O)N3CCOCC3)ccc2-n2cncn2)cc1` reads > 100 µM (inactive). The result for `CC1CC(NC(=S)Nc2cccc(S(=O)(=O)N(C)C)c2)CC(C)N1` (stereo not given) reads > 100 µM (inactive); that for `Cc1ccc(S(=O)(=O)N(C)C)cc1NC(=S)NC(=O)C12CC3CC(CC(C3)C1)C2`, > 100 µM (inactive); that for `O=S(=O)(c1ccc(NC(=S)NC(c2ccccc2)c2ccccc2)cc1)N1CCCCC1`, 4.38 µM. As to `COc1cccc(CNC(=S)Nc2ccc(S(=O)(=O)N(C)C)cc2)c1`, the EC50 was 45.1 µM. The result for `O=S(=O)(c1ccc(NC(=S)NCc2cccc(F)c2)cc1)N1CCCCC1` reads 28.5 µM; that for `CN(C)S(=O)(=O)c1cccc(NC(=S)NCCc2ccc(F)cc2)c1`, > 100 µM (inactive).

For `CN(C)S(=O)(=O)c1cccc(NC(=S)NCCc2cccc(Br)c2)c1`, the concentration for a half-maximal effect (EC50) is 56.9 µM. The result for `COc1ccc(CCNC(=S)Nc2ccc(S(=O)(=O)N3CCCCC3)cc2)cc1` reads 60.6 µM; that for `CN(C)S(=O)(=O)c1ccc(NC(=S)NCCC(c2ccccc2)c2ccccc2)cc1`, 20.1 µM; that for `Cc1ccc(CNC(=S)Nc2cccc(S(=O)(=O)N(C)C)c2)cc1`, 25.9 µM.

As to `Cc1ccc(S(=O)(=O)N(C)C)cc1NC(=S)NCCCn1ccnc1`, the EC50 is > 100 µM (inactive). The result for `CN(C)S(=O)(=O)c1cccc(NC(=S)NCCCN2CCCC2=O)c1` reads > 100 µM (inactive); that for `CN(C)S(=O)(=O)c1ccc(NC(=S)NCCN2CCCC2)cc1`, > 100 µM (inactive). Under `CN(C)S(=O)(=O)c1ccc(NC(=S)NCCc2ccccc2)cc1` stands > 100 µM (inactive); under `Cc1ccc(S(=O)(=O)N(C)C)cc1NC(=S)NC(C)CCCC(C)C` (stereo not given), 51.5 µM. The result for `CN(C)S(=O)(=O)c1cccc(NC(=S)NCC(c2ccccc2)c2ccccc2)c1` reads 15.3 µM. `O=S(=O)(c1ccc(NC(=S)NCC(c2ccccc2)c2ccccc2)cc1)N1CCCCC1`: the concentration giving a half-maximal response (EC50) was 5.37 µM.

With `COc1ccccc1CNC(=S)Nc1ccc(S(=O)(=O)N(C)C)cc1`, the EC50 was 67.1 µM.

With `CN(C)S(=O)(=O)c1ccc(NC(=S)NCC(c2ccccc2)c2ccccc2)cc1`, the EC50 was 13.4 µM. The result for `COc1ccc(CCNC(=S)Nc2ccc(S(=O)(=O)N3CCCCC3)cc2)cc1OC` reads 60.5 µM; that for `Cc1ccc(CNC(=S)Nc2ccc(S(=O)(=O)N(C)C)cc2)cc1`, 73.2 µM.

Turning to `CCN(CC)S(=O)(=O)c1ccc(NC(=S)NC(c2ccccc2)c2ccccc2)cc1`, the EC50 was 43.9 µM.

In the case of `CCN(CC)S(=O)(=O)c1ccc(NC(=S)NCC(c2ccccc2)c2ccccc2)cc1`, the concentration for a half-maximal effect (EC50) is 19.5 µM.

`O=S(=O)(c1ccc(NC(=S)NCc2cccc(Cl)c2)cc1)N1CCCCC1`: the EC50 was 36.1 µM. With `COc1ccc(CNC(=S)Nc2ccc(S(=O)(=O)N3CCCCC3)cc2)cc1OC`, the EC50 was 43.7 µM.

On to `CC(CCc1ccccc1)NC(=S)Nc1cccc(S(=O)(=O)N(C)C)c1` (stereo not given), for which the EC50 is 44.7 µM. The result for `CC1CCN(S(=O)(=O)c2ccc(NC(=S)NCC(c3ccccc3)c3ccccc3)cc2)CC1` reads 6.81 µM; that for `CN(C)S(=O)(=O)c1ccc(NC(=S)NCCc2cccc(Br)c2)cc1`, 48.5 µM; that for `CCN(CC)S(=O)(=O)c1ccc(NC(=S)NCCC(c2ccccc2)c2ccccc2)cc1`, 76.9 µM. The result for `CCCCCCC(C)NC(=S)Nc1cc(S(=O)(=O)N(C)C)ccc1C` (stereo not given) reads 12.3 µM; that for `COc1cccc(CCNC(=S)Nc2cccc(S(=O)(=O)N(C)C)c2)c1`, 53.7 µM; that for `CN(CCc1ccccc1)C(=S)Nc1cccc(S(=O)(=O)N(C)C)c1`, > 100 µM (inactive). The result for `Cc1ccc(S(=O)(=O)N(C)C)cc1NC(=S)NC1CCN(Cc2ccccc2)CC1` reads > 100 µM (inactive); that for `CN(CCc1ccccn1)C(=S)Nc1cccc(S(=O)(=O)N(C)C)c1`, > 100 µM (inactive); that for `CC1CCN(S(=O)(=O)c2ccc(NC(=S)NC(c3ccccc3)c3ccccc3)cc2)CC1`, 7.3 µM.

On to `CN(C)S(=O)(=O)c1cccc(NC(=S)NCCc2ccccc2)c1`, for which the EC50 is 51.6 µM. `CN(C)S(=O)(=O)c1cccc(NC(=S)NCCc2cccc(F)c2)c1`: the EC50 is 20.2 µM. The result for `O=C(NC(=S)Nc1cc(S(=O)(=O)N2CCOCC2)ccc1O)c1ccco1` reads > 100 µM (inactive); that for `CN(C)CCCNC(=S)Nc1cccc(S(=O)(=O)N(C)C)c1`, > 100 µM (inactive).

Turning to `CN(C)S(=O)(=O)c1ccc(NC(=S)NC(c2ccccc2)c2ccccc2)cc1`, the EC50 was 3.23 µM.

Consider `CN(C)S(=O)(=O)c1cccc(NC(=S)NCCc2ccc(Br)cc2)c1`, for which the EC50 was 86 µM. The result for `O=S(=O)(c1ccc(NC(=S)NC(c2ccccc2)c2ccccc2)cc1)N1CCCC1` reads 12.7 µM; that for `O=S(=O)(c1ccc(NC(=S)NCCC(c2ccccc2)c2ccccc2)cc1)N1CCCCC1`, 44.5 µM. For `CN(C)CC(C)(C)CNC(=S)Nc1cccc(S(=O)(=O)N(C)C)c1`, the EC50 was > 100 µM (inactive). For the compound `O=C(CCc1ccccc1)NC(=S)Nc1cccc(S(=O)(=O)N2CCCC2)c1`, the EC50 was > 100 µM (inactive). In the case of `Cc1ccc(C)c(NC(=S)Nc2ccc(S(=O)(=O)N3CCCCC3)cc2)c1`, the EC50 is > 100 µM (inactive). In the case of `CN(C)S(=O)(=O)c1ccc(NC(=S)NCCc2cccc(O)c2)cc1`, the EC50 was > 100 µM (inactive). For `CC1CCN(S(=O)(=O)c2ccc(NC(=S)NCCC(c3ccccc3)c3ccccc3)cc2)CC1`, the EC50 was 12.9 µM.

The EC50 is the concentration that produces a half-maximal response.
